Measured values as given in US9951089B2, “Methods of treating a fatty acid amide hydrolase-mediated condition” (INFINITY PHARMACEUTICALS, INC., priority 2010, dated 2018).

Target: T1, human FAAH (Homo sapiens, UniProt O00519)
T1 construct: The clone was in an ORIGENE® pCMV6-XL5 with an insert size of ˜2.2 kb
T1 sequence (O00519 50-579 limits assumed): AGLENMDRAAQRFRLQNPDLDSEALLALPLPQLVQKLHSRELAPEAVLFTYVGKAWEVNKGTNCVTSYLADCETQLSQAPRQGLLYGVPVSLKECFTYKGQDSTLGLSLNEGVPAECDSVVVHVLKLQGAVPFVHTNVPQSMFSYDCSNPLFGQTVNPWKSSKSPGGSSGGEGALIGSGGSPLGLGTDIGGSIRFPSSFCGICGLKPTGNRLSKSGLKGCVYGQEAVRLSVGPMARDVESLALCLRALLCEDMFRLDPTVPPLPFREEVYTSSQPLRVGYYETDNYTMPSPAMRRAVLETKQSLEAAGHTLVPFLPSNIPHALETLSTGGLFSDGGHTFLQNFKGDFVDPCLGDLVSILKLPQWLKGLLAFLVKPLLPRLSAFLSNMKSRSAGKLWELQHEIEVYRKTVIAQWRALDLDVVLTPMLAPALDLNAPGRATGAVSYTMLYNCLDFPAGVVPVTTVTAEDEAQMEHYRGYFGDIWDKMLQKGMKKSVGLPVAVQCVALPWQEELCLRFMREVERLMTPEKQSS
Experiment: Ki determination, human FAAH (AMC-arachidonoyl amide hydrolysis, fluorescence end point)
Format: biochemical
Settings: hFAAH 108 μg/mL, substrate 20 μM, 30 min preincubation, 4 hours at room temperature
Source text: A human FAAH (hFAAH) cDNA clone was purchased from Origen (Catalog #TC 119221, Accession #NM_001441.1). The clone was in an ORIGENE® pCMV6-XL5 with an insert size of ˜2.2 kb. Sequencing of the clone indicated a conservative mutation of K48R. This point mutation is possibly an allelic difference, and is far from the active site and unlikely to effect the activity. This plasmid was amplified in E. coli and isolated by precipitation. […]
Frozen cell pellets were thawed on ice and resuspended in: 12.5 mM HEPES (pH 8.0), 100 mM NaCl, and 1 mM EDTA at a ratio of 25 mL per gram of cells. […] Total protein concentrations were determined using a Bio-Rad Protein Assay (Protein Assay Dye Reagent Concentrate, cat#500-0006) ref. 5. […]
The Ki of a test compound was determined for rat and human FAAH by measuring the dose dependent inhibition of AMC-Arachidonoyl amide hydrolysis as an end point read. Assays were carried out in Corning COSTAR® 384 well flat black bottom microtiter plates (Catalog #3654) and monitored in an Envision 2100 multilabel plate reader (Perkin Elmer-Wallac), with a 355 nm (40 nm band pass) excitation filter and 460 nm (25 nm bandpass) emission filter. […]

Ki: 14.1 nM
SMILES: OB(O)c1ccc(-c2ccc(B(O)O)c(F)c2)cc1F [IMP-4]
